The data set is described as follows: Density of ionic liquids. In kind it is physicochemical. The settings on record: 20° C. The procedure: Density and molecular weight (Mw) of Ionic liquids 1 to 4 were determined at 20° C., and each ion concentration was calculated from the relationship: [density of ionic liquid (g/cm^3)/molecular weight (MW) of ionic liquid (g/mol)]×1000.

Our source for the density values is patent US8318644B2, “Lubricating oil” (Idemitsu Kosan Co., Ltd., priority 2003, dated 2012).

Broadly, the density is mass per unit of volume. In turn, `CCCCn1cc[n+](C)c1.F[B-](F)(F)F` [Ionic liquid 4, 1-Butyl-3-methylimidazolium tetrafluoroborate] yielded a density of 1.208 g/mL.
Turning to `CCn1cc[n+](C)c1.F[B-](F)(F)F` [Ionic liquid 1, 1-Ethyl-3-methylimidazolium tetrafluoroborate], the density turned out to be 1.283 g/mL.
“N,N-diethyl-N-methyl(2-methoxyethyl)ammonium bis(trifluoromethanesulfonyl)imide [Ionic liquid 3]” had a density of 1.420 g/mL.
As to “Butylpyridinium bis(trifluoromethanesulfonyl)imide [Ionic liquid 2]”, the density worked out at 1.453 g/mL.
